Assays:
[1] = test system: brachiocephalic artery (BCA) in ApoE/LDLR−/− mice; assay: MRI-based endothelium-dependent response to acetylcholine in brachiocephalic artery; assay type: in vivo
Method: (§1) The experiments were performed using female ApoE/LDLR−/− mice of different ages: 4-, 6-, 8-, 12- and 28-week-old(19) in comparison to control young (8-week-old) mice (C57BL/6) without endothelial dysfunction. All mice (body weight 20-30 g) were housed under standard pathogen-free conditions (LD: 12/12, humidity: 60%, temperature: 23° C.).
(§2) MRI experiments were carried out using a 9.4 T scanner (BioSpec 94/20 USR, Bruker, Germany). During the experiment, mice were anesthetized using isoflurane (Aerrane, Baxter Sp. z o.o., Poland, 1.5% by volume) in an oxygen and air mixture (1:2). Cardiac activity, respiration rate and body temperature (maintained at 37° C., using circulating warm water) were monitored using Monitoring and Gating System (SA Inc., Stony Brook, N.Y., USA). Mice were imaged in the supine position to test endothelial function and permeability in various blood vessels.
(§3) Endothelium-dependent response to acetylcholine (Ach), expressed as changes in vessel volume, was assessed in the brachiocephalic artery (BCA) visible on the 3D image of the aortic arch (A) and in the abdominal aorta (AA) positioned on the sagittal view of the mouse (B). Assessment of vessel response to flow-mediated dilation (FMD), also expressed as changes in vessel volume, was performed in the femoral artery (FA), visible on the 3D image of the left hind limb (D). Pixels for which T1 had changed more than 50% after CA (Npx50) were marked in red on a representative cross-sectional image of blood vessels arising from the aortic arch (C).
(§4) To assess the sensitivity of endothelial dysfunction detection using the new contrast agent, being an invention, impaired endothelial function in ApoE/LDLR−/− mice was also assessed by other MRI-based techniques; detection of endothelium-dependent response to acetylcholine (FIG. 5) and measurement of increase in flow after short-term vessel occlusion (FMD, FIG. 6). […]

[2] = test system: abdominal aorta (AA) in ApoE/LDLR−/− mice; assay: MRI-based endothelium-dependent response to acetylcholine in abdominal aorta; assay type: in vivo; conditions: for AA volume change: intraperitoneal Ach, 25 minutes after administration; for change in AA volume: paradoxical vasoconstriction
Method: as §1, §2, §3
as §4, with “6). As described in our recent publication(22), endothelium-dependent response to acetylcholine (Ach, FIG. 5B) in abdominal aorta (AA) is the most sensitive in vivo method to detect changes in endothelial phenotype.” for “6).”
Changes in the end-diastolic volume of brachiocephalic artery (A: BCA-ACH) and abdominal aorta (B: AA-ACH) 25 minutes after administration of acetylcholine in ApoE/LDLR−/− mice (white columns) of different ages: 4-week-old ApoE/LDLR−/− mice, 6-week-old ApoE/LDLR−/− mice, 8-week-old ApoE/LDLR−/− mice, 12-week-old ApoE/LDLR−/− mice, 28-week-old ApoE/LDLR−/− mice as compared to 8-week-old control C57BL/6 mice, (C57_8W, n=4, black columns). Statistics: one-way ANOVA followed by Tukey's post hoc test (normality was assessed using the Shapiro-Wilk test); *p<0.05, **p<0.01, ***p<0.001.

SMILES: CC(=O)OCC[N+](C)(C)C [Ach, acetylcholine]
- changes in BCA volume ([1]; 4 to 8-week-old ApoE/LDLR−/− mice): approximately 10%
- volume change in the BCA ([1]; 8-week-old control mice (C57BL/6)): 11.26%
- BCA volume changes ([1]; 12-week-old ApoE/LDLR−/− mice): about 2%
- AA volume change ([2]; 4-week-old ApoE/LDLR−/− mice): about 23%
- change in AA volume ([2]; 12-week-old ApoE/LDLR−/− mice): about −8%
- change in AA volume ([2]; 28-week-old ApoE/LDLR−/− mice): ~−23%
- AA volume change ([2]; control mice (8-week-old C57BL/6)): about 34%

Reference: US20220143224A1, “MRI CONTRAST AGENT FOR USE IN THE DIAGNOSIS OF EARLY CHANGES IN THE ENDOTHELIUM OF BLOOD VESSELS” (UNIWERSYTET JAGIELLONSKI, priority 2019, published 2022)
